In patent US9265253B2, “Use of macrocyclic picolinamides as fungicides” (DOW AGROSCIENCES LLC, priority 2013, dated 2016):
Read-outs that look alike come from different tables or passages of the source.

What was measured:
[1] = system: Puccinia triticina; Synonym: Puccinia recondite f. Sp. Tritici; test: Wheat Brown Rust (PUCCRT) disease control; type: in vivo; conditions: Puccinia triticina, topical
Summary of the method: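 Brown rust on first-leaf Yuma wheat: spore inoculation before or after spray application (acetone/Triton X-100 solution, or EC with Trycol in track spray), overnight 100% RH at 22 °C, disease developed at 24 °C. Severity scored 0–100% and converted to percent control against untreated.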

[2] = system: Mycosphaerella graminicola; Anamorph: Septoria tritici; test: Leaf Blotch of Wheat (SEPTTR) disease control; type: in vivo; conditions: Zymoseptoria tritici
Summary of the method: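 Seedlings of variety Yuma grew until the first leaf fully emerged. Fungicide solution (acetone/water with Triton X-100) was sprayed to run-off; plants were inoculated with S. tritici spores before or after spraying, held one day dark and two to three days lit at 100% humidity, then kept at 20° C.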

[3] = 24 h, Wheat Brown Rust, 1 Day Protectant, rate 100 ppm (high volume application), read-out: Disease control PUCCRT 1 DP
[4] = 24 h, Wheat Brown Rust, 1 Day Protectant, rate 121.5 g/H (low volume application), read-out: Disease control PUCCRT 1 DP
[5] = 72 h, Wheat Brown Rust, 3 Day Curative, rate 100 ppm (high volume application), read-out: Disease control PUCCRT 3 DC
[6] = 72 h, Wheat Brown Rust, 3 Day Curative, rate 121.5 g/H (low volume application), read-out: Disease control PUCCRT 3 DC
[7] = 24 h, Wheat Leaf Blotch, 1 Day Protectant, rate 100 ppm (high volume application), read-out: Disease control SEPTTR 1 DP
[8] = 24 h, Wheat Leaf Blotch, 1 Day Protectant, rate 121.5 g/H (low volume application), read-out: Disease control SEPTTR 1 DP
[9] = 72 h, Wheat Leaf Blotch, 3 Day Curative, rate 121.5 g/H (low volume application), read-out: Disease control SEPTTR 3 DC
[10] = 24 h, 1 Day Protectant, rate 100 ppm, read-out: PUCCRT 1 DP disease control
[11] = 24 h, 1 Day Protectant, rate 121.5 g/H, read-out: PUCCRT 1 DP disease control
[12] = 72 h, 3 Day Curative, rate 100 ppm, read-out: PUCCRT 3 DC disease control
[13] = 72 h, 3 Day Curative, rate 121.5 g/H, read-out: PUCCRT 3 DC disease control
[14] = 24 h, 1 Day Protectant, rate 100 ppm, read-out: SEPTTR 1 DP disease control
[15] = 24 h, 1 Day Protectant, rate 121.5 g/H, read-out: SEPTTR 1 DP disease control
[16] = 72 h, 3 Day Curative, rate 100 ppm, read-out: SEPTTR 3 DC disease control
[17] = 72 h, 3 Day Curative, rate 121.5 g/H, read-out: SEPTTR 3 DC disease control

Structure (SMILES) | pest or weed control at 100 ppm [1, 3] | pest or weed control at 121.5 g/ha [1, 4] | pest or weed control at 100 ppm [1, 5] | pest or weed control at 121.5 g/ha [1, 6] | pest or weed control at 100 ppm [2, 7] | pest or weed control at 121.5 g/ha [2, 8] | pest or weed control at 100 ppm ([2]; 72 h, Wheat Leaf Blotch, 3 Day Curative, rate 100 ppm (high volume application), read-out: Disease control SEPTTR 3 DC) | pest or weed control at 121.5 g/ha [2, 9] | pest or weed control at 100 ppm [1, 10] | pest or weed control at 121.5 g/ha [1, 11] | pest or weed control at 100 ppm [1, 12] | pest or weed control at 121.5 g/ha [1, 13] | pest or weed control at 100 ppm [2, 14] | pest or weed control at 121.5 g/ha [2, 15] | pest or weed control at 100 ppm [2, 16] | pest or weed control at 121.5 g/ha [2, 17]
COCCC(=O)Oc1c(OC)ccnc1C(=O)N[C@H]1CCC[C@H](CC2CCCC2)[C@@H](OCC2CC2)[C@H](C)OC1=O [Compound F194] | 80 to 100% | 80 to 100% | 80 to 100% | 0 to 80% | 80 to 100% | 80 to 100% | 80 to 100% | 80 to 100% | – | – | – | – | – | – | – | –
COCCC(=O)Oc1c(OC)ccnc1C(=O)N[C@H]1CCC[C@H](CC2CCCC2)[C@@H](Oc2ccccc2)[C@H](C)OC1=O [Compound F153] | – | – | – | – | – | – | – | – | 80 to 100% | 80 to 100% | 80 to 100% | 0 to 80% | 80 to 100% | 80 to 100% | 80 to 100% | 80 to 100%
COc1ccnc(C(=O)N[C@H]2CCC[C@H](CC3CCCC3)[C@@H](Oc3ccccc3)[C@H](C)OC2=O)c1OC(C)=O [Compound F71] | – | – | – | – | – | – | – | – | 80 to 100% | 80 to 100% | 80 to 100% | 0 to 80% | 80 to 100% | 80 to 100% | 80 to 100% | 80 to 100%
COc1ccnc(C(=O)N[C@H]2CCC[C@H](CCC(C)C)[C@@H](OC)[C@H](C)OC2=O)c1OCOC(C)=O [Compound F95] | – | – | – | – | – | – | – | – | 80 to 100% | 80 to 100% | 80 to 100% | 0 to 80% | 80 to 100% | 80 to 100% | 80 to 100% | 0 to 80%
COc1ccnc(C(=O)N[C@H]2CCC[C@H](CCOCC3CC3)[C@@H](OCC3CC3)[C@H](C)OC2=O)c1OCOC(=O)C(C)C [Compound F156] | – | – | – | – | – | – | – | – | 80 to 100% | 80 to 100% | 80 to 100% | 80 to 100% | 0 to 80% | 0 to 80% | 0 to 80% | 0 to 80%
COc1ccnc(C(=O)N[C@H]2CCC[C@H](C)[C@@H](Oc3ccccc3)[C@H](C)OC2=O)c1O [Compound F38] | – | – | – | – | – | – | – | – | 80 to 100% | – | 80 to 100% | – | 80 to 100% | – | – | –
COc1ccnc(C(=O)N[C@H]2CCC[C@H](CCC(C)C)[C@@H](OC)[C@H](C)OC2=O)c1OC(C)=O [Compound F66] | – | – | – | – | – | – | – | – | 80 to 100% | 0 to 80% | 80 to 100% | 0 to 80% | 80 to 100% | 80 to 100% | 80 to 100% | 0 to 80%
C=CCO[C@@H]1[C@@H](Cc2ccc(F)cc2)CCC[C@H](NC(=O)c2nccc(OC)c2O)C(=O)O[C@H]1C [Compound F12] | – | – | – | – | – | – | – | – | 0 to 80% | – | 80 to 100% | – | 80 to 100% | – | 80 to 100% | –
CCOCC(=O)OCOc1c(OC)ccnc1C(=O)N[C@H]1CCC[C@H](CCOc2ccccc2)[C@@H](Oc2ccccc2)[C@H](C)OC1=O [Compound F182] | – | – | – | – | – | – | – | – | 80 to 100% | 80 to 100% | 80 to 100% | 0 to 80% | 80 to 100% | 80 to 100% | 80 to 100% | 80 to 100%
CCOCC(=O)OCOc1c(OC)ccnc1C(=O)N[C@H]1CCC[C@H](CCOCC2CC2)[C@@H](OCC2CC2)[C@H](C)OC1=O [Compound F191] | 80 to 100% | 80 to 100% | 80 to 100% | 80 to 100% | 80 to 100% | 0 to 80% | – | 0 to 80% | – | – | – | – | – | – | – | –
COc1ccnc(C(=O)N[C@H]2CCC[C@H](CCOc3ccccc3)[C@@H](OCC3CC3)[C@H](C)OC2=O)c1OC(C)=O [Compound F84] | – | – | – | – | – | – | – | – | 80 to 100% | 80 to 100% | 80 to 100% | 80 to 100% | 80 to 100% | 0 to 80% | 80 to 100% | –
COc1ccnc(C(=O)N[C@H]2CCC[C@H](CCC(C)C)[C@@H](Oc3ccccc3)[C@H](C)OC2=O)c1OC(C)=O [Compound F62] | – | – | – | – | – | – | – | – | 80 to 100% | 80 to 100% | 80 to 100% | 0 to 80% | 80 to 100% | 80 to 100% | 80 to 100% | 80 to 100%
COc1ccnc(C(=O)N[C@H]2CCC[C@H](CCOCC3CC3)[C@@H](OCC3CC3)[C@H](C)OC2=O)c1OCOC(C)=O [Compound F140] | – | – | – | – | – | – | – | – | 80 to 100% | 80 to 100% | 80 to 100% | 80 to 100% | 80 to 100% | 0 to 80% | 0 to 80% | 0 to 80%
COc1ccnc(C(=O)N[C@H]2CCC[C@H](CCC(C)C)[C@@H](OC)[C@H](C)OC2=O)c1O [Compound F7] | – | – | – | – | – | – | – | – | 80 to 100% | – | 0 to 80% | – | 80 to 100% | – | 80 to 100% | –
CCOCC(=O)Oc1c(OC)ccnc1C(=O)N[C@H]1CCC[C@H](CCOc2ccccc2)[C@@H](Oc2ccccc2)[C@H](C)OC1=O [Compound F185] | – | – | – | – | – | – | – | – | 80 to 100% | – | 80 to 100% | – | 80 to 100% | – | 80 to 100% | –
COc1ccnc(C(=O)N[C@H]2CCC[C@H](CCC(C)C)[C@@H](OCC(C)C)[C@H](C)OC2=O)c1OCOC(=O)C(C)C [Compound F148] | – | – | – | – | – | – | – | – | 80 to 100% | 80 to 100% | 80 to 100% | 80 to 100% | 80 to 100% | 80 to 100% | 80 to 100% | 80 to 100%
COc1ccnc(C(=O)N[C@H]2CCC[C@H](Cc3ccco3)[C@@H](OCC(C)C)[C@H](C)OC2=O)c1O [Compound F34] | – | – | – | – | – | – | – | – | 80 to 100% | – | 80 to 100% | – | 80 to 100% | – | 80 to 100% | –
COCCO[C@@H]1[C@@H](Cc2ccccc2)CCC[C@H](NC(=O)c2nccc(OC)c2O)C(=O)O[C@H]1C [Compound F24] | – | – | – | – | – | – | – | – | 80 to 100% | – | 80 to 100% | – | 80 to 100% | – | 80 to 100% | –
CCCO[C@@H]1[C@@H](Cc2ccccc2)CCC[C@H](NC(=O)c2nccc(OC)c2O)C(=O)O[C@H]1C [Compound F21] | – | – | – | – | – | – | – | – | 80 to 100% | – | 80 to 100% | – | 0 to 80% | – | 0 to 80% | –
COc1ccnc(C(=O)N[C@H]2CCC[C@H](CCC(C)C)[C@@H](Oc3ccccc3)[C@H](C)OC2=O)c1OCOC(=O)C(C)C [Compound F147] | – | – | – | – | – | – | – | – | 80 to 100% | 80 to 100% | 80 to 100% | 0 to 80% | 80 to 100% | 80 to 100% | 80 to 100% | 80 to 100%
COc1ccnc(C(=O)N[C@H]2CCC[C@H](CC3CCCC3)[C@@H](OCC3CC3)[C@H](C)OC2=O)c1OCOC(=O)C(C)C [Compound F154, ((2-(((3S,7R,8R,9S)-7-(cyclopentylmethyl)-8-(cyclopropylmethoxy)-9-methyl-2-oxooxonan-3-yl)carbamoyl)-4-methoxypyridin-3-yl)oxy)methyl isobutyrate] | – | – | – | – | – | – | – | – | 80 to 100% | 80 to 100% | 80 to 100% | 80 to 100% | 80 to 100% | 80 to 100% | 80 to 100% | 80 to 100%
